Laboratory results reported in patent US20220142990A1, “EXTERNAL PREPARATION FOR TREATING A VASCULAR ANOMALY” (OSAKA UNIVERSITY, priority 2019, published 2022).

Assay: Test Example 4: sirolimus in blood of the patients
Assay type: in vivo, human
Settings: Patients A, B, C; 0.2% sirolimus gel applied to lesion twice a day for 12 weeks; not detected, measurement limit value
Method: The gel containing 0.2 wt % of sirolimus produced in Production Example 3 (hereinafter referred to as 0.2% sirolimus gel) was applied to a lesion portion twice a day for 12 weeks. An approximate size of an application target lesion was measured to determine a single application amount. The application amount was set to about 125 mg of gel per 50 cm^2. In the sirolimus gel treatment period (12 weeks), no combined medicine was used, and no combination therapy was performed.
Sirolimus was not detected from the blood of any of the patients (measurement limit value: 1.0 ng/mL).

sirolimus in blood: < 1.0 ng/mL
Structure (SMILES): CO[C@H]1C[C@@H]2CC[C@@H](C)[C@@](O)(O2)C(=O)C(=O)N2CCCC[C@H]2C(=O)O[C@H]([C@H](C)C[C@@H]2CC[C@@H](O)[C@H](OC)C2)CC(=O)[C@H](C)/C=C(\C)[C@@H](O)[C@@H](OC)C(=O)[C@H](C)C[C@H](C)/C=C/C=C/C=C/1C [Sirolimus, sirolimus]
